Experimental data published in patent publication US12440471B2, “Compositions and methods for the treatment of bronchopulmonary dysplasia (BPD) and BPD-associated pulmonary hypertension” (AyuVis Research, Inc., priority 2021, dated 2025).

Legend:
Type in all cases: in vivo
[1] = PK study in mouse pups by IP and IN routes (plasma, lung tissue)
Description: Pharmacokinetic (PK) Profile of AVR-48 (compound 8). The PK studies of AVR-48 were developed and designed in-house, by high performance liquid chromatography (HPLC), in both mouse and rat pups by IV, IP and IN dosing, to check the bioavailability of the drug formulated as solution, suspension or nanoparticle encapsulation in plasma, broncho-alveolar lavage fluid (BALF) and lung tissues.
The first study was done in the plasma of mouse pups by IP and IN routes to determine the dose range for efficacy. […] For IN dosing, a Tmax of 1 h was found even with a dose of 0.22 mg/kg and rapid clearance was observed by 2 h.

[2] = tested on: hyperoxia-exposed BPD mouse model; experiment: BPD mouse model: bronchoalveolar lavage fluid (BALF) analysis; settings: vs BPD group
Description: For the hyperoxia experiment, newborn pups were exposed to 100% hyperoxia (P0), along with their mothers, in cages in an airtight Plexiglas chamber (OxyCycler; Biospherix, Redfield, NY, USA) as described previously by the present inventors (Syed, Das et al., 2017, Leary, Das et al. 2019, Das, Acharya et al. 2020, relevant portions incorporated herein) for 4 consecutive days (till P4) and removed to RA on P5 to be recovered till P14, so as to emulate the human BPD condition. All pups were sacrificed on P14 for further experimental analyses. The pups without any hyperoxia exposure served as the corresponding RA (normoxia) controls.
Bronchoalveolar lavage fluid (BALF) Analysis. Pups were sacrificed on PN14, and the trachea was cannulated with a small-caliber needle by instilling PBS endotracheally at […] pressure for 15 minutes. Two volumes of 300 μL of cold 1×PBS were instilled, gently aspirated, and pooled. Samples were centrifuged at 1000×g for 10 minutes at 4° C. The supernatant was collected, and total protein was quantified using the Pierce™ BCA Protein Assay Kit (Fisher Scientific Co, Houston, TX). The total cell count was done using the TC20 cell counter (BioRad, Hercules, CA). Similar method was followed for analyzing the protein concentration in BAL fluid collected from preterm lambs.

[3] = tested on: hyperoxia-exposed BPD mouse model; experiment: BPD mouse model: western blot of lung homogenates
Method: Western Blot Analysis. Western blot analyses for TLR4 (Cell Signaling Technology, Danvers, MA; 1:1000), Ang2 (1:500; Sigma, St. Louis, MO), TGFβ, NFkB, TNFα, IL-10, IL-1(3, IL-4, Vegf, eNos, Vegf-D, BmpRII, Vinculin (1:500; SantaCruz, Dallas, TX), were performed, as previously described (Leary, Das et al. 2019), by loading 30 μg of lung protein, followed by immunoblotting with the above antibodies and visualizing with Odyssey infrared imaging system (LI-COR Biosciences, Lincoln, NE). Densitometric quantification was done using ImageJ after normalizing with Vinculin, the loading control housekeeping protein.

[4] = tested on: hyperoxia-exposed BPD mouse model; experiment: BPD mouse model: multiplex ELISA of blood serum cytokines
Method: Multiplex ELISA. Lung lysate and blood plasma from control and AVR-48 treated group were used for Multiplex ELISA performed on 4 separate inflammatory panels of Meso Scale Discovery multispot assay system (MSD, Rockville, MD) to detect 2 chemokines (MIP-2, MCP-1) and 8 cytokines: IL-21, IP-10, IFNγ, IL-1(3, TNFα, IL-17, IL-10 and IL-6 following the manufacturer's instructions. Briefly, samples were diluted 1:1 in a total volume of 25 μl with the dilution buffer provided with MSD kit and incubated with the above labelling antibodies for 2 h, RT followed by washing with PB ST. The […] was detected using the MSD-specific luminometer.

[5] = PK study in rat pups by SC or IV (plasma, BALF); settings: for accumulation ratio using AUC(0-t): BALF, SC
[6] = C57BL/6J, mouse, plasma, 10 mg/kg IP

## CC(=O)N[C@@H]1C(Oc2ccc([N+](=O)[O-])cc2)OC(CO)C(O)C1O (some centres unmarked) [AVR-48]
[1]; C57BL/6J, mouse, intraperitoneal, lung tissue, 10 mg/kg
  Tmax: 5 min
[1]; C57BL/6J, mouse, intraperitoneal, plasma, single IV or IP injection of 10 mg/kg
  Cmax: 5.78 ± 0.91 µM
[1]; C57BL/6J, mouse, plasma, other: intranasal (IN), IN dosing, 0.22 mg/kg
  Tmax: 60 min
[1]; C57BL/6J, mouse, plasma, 0.22 mg/kg IP
  Tmax: 5 min
[1]; [6]
  Tmax: 5 min
  half-life: 21.6 min
[1]; IN dosing, 0.22 mg/kg
  time by which rapid clearance was observed: ≤ 2 h
[1]; following IP injection
  clearance from circulation: cleared from circulation rapidly
[1]; solution formulation
  bioavailability in plasma and lungs, IN vs IP: similar
[2]; 10 mg/kg IP
  total protein content in BALF: decreased
[2]; 10 mg/kg
  total inflammatory cells in BALF: significantly decreased
[3]; RA+AVR-48 treated group
  inflammation in room air animals: increased inflammation
[3]; lung homogenates, vs BPD
  IL-1β: marked decrease
  IL-13: marked decrease
  TNFα: marked decrease
  nuclear factor kappa B (NFkB): marked decrease
[3]; lung, vs BPD
  Angiopoetin 2 (Ang2): significantly decreased
  Vegf-D protein: decreases
[3]; lung, vs BPD group
  IL-10: increased
  Total vascular endothelial growth factor (Vegf): increased considerably
  bone morphometric protein receptor (BmpR)II: significantly decreased
  endothelial nitric oxide synthase (eNOS): significantly decreased
[3]; lungs, vs BPD group
  IL-4: decrease
  TGFβ: decrease
[3]; whole lung homogenates, after treatment
  TLR4 expression in the lungs: increase in the expression of TLR4
[4]; AVR-48 treated group
  IFNγ: decreased to normal levels
  IL-1β: decreased to normal levels
  IP-10: decreased to normal levels
  MCP-1: decreased to normal levels
  TNFα: decreased to normal levels
[4]; BPD group
  IL-10: markedly increased
[4]; treated vs untreated BPD
  IL-17: no change
  IL-21: no change
  MIP-2: no change
[5]; 100 mg/kg/day
  accumulation ratio using AUC(0-t): 1.90
[5]; 150 mg/kg/day
  accumulation ratio using AUC(0-t): 0.880
[5]; Sprague Dawley Crl:CD, rat, in vivo, sc, AUC(0-t)
  AUC(0-t): 2610 ng·h/mL
[5]; rat, in vivo, sc, 75 mg/kg
  AUC(0-t) dose proportionality: increased in a dose-proportional manner
